Data taken from article PMC7357171 (Toxicological Sciences, 2020).
Marks after values point to notes of the source that are not given here.

Legend:
[1] = Determination of the margin of safety; details: for Preliminary MoS (range): PoDs of the in vitro bioactivity characterization step
MCF7 = assay: High-throughput transcriptomics
MAO-B = details: ref Gnerre et al., 2000; cited from earlier work
[2] = system: LPS-stimulated PBMC and endothelial cell coculture system; assay: BioMap Diversity 8 Panel, LPS system; format: cell-based, human; details: up to 500 µM
[3] = Human cryopreserved hepatocyte stability assay; format: in vitro ADME; details: cryopreserved hepatocytes
[4] = biological target: carbonic anhydrase type IV; details: read-out: Ki used as PoD for the MoS calculation; ref PubChem; cited from earlier work
[5] = biological target: carbonic anhydrase type I; details: read-out: Ki used as PoD for the MoS calculation; ref PubChem; cited from earlier work
MAO-A [6] = biological target: T1, MAO-A (Rattus norvegicus, UniProt P21396); assay: SafetyScreen44 MAO-A; format: binding; details: coumarin 10 µM
T1 sequence (P21396 1-526): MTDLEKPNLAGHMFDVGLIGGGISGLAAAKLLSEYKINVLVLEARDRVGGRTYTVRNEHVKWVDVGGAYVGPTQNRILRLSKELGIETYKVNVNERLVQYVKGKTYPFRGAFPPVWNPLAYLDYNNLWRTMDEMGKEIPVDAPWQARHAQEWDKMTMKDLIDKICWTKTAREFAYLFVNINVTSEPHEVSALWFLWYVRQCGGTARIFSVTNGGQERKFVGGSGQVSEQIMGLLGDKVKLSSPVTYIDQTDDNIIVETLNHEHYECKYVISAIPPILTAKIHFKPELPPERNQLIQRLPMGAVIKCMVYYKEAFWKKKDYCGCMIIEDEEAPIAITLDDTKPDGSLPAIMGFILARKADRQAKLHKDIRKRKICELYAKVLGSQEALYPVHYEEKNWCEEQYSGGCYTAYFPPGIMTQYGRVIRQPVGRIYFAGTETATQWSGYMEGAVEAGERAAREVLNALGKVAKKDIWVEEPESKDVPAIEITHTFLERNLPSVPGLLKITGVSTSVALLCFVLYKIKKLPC

[7] = assessment factor of 100 on the animal NOAEL; ref EFSA, 2008; cited from earlier work
HepaRG 3D [8] = assay: High-throughput transcriptomics; format: cell-based, human
HepaRG 2D = assay: High-throughput transcriptomics
CYP2A6 = biological target: T2, CYP2A6 (Homo sapiens, UniProt P11509); assay: Compound stability in expressed human CYP2A6; details: heterologously expressed (recombinant) CYP2A6
T2 sequence (P11509 1-494): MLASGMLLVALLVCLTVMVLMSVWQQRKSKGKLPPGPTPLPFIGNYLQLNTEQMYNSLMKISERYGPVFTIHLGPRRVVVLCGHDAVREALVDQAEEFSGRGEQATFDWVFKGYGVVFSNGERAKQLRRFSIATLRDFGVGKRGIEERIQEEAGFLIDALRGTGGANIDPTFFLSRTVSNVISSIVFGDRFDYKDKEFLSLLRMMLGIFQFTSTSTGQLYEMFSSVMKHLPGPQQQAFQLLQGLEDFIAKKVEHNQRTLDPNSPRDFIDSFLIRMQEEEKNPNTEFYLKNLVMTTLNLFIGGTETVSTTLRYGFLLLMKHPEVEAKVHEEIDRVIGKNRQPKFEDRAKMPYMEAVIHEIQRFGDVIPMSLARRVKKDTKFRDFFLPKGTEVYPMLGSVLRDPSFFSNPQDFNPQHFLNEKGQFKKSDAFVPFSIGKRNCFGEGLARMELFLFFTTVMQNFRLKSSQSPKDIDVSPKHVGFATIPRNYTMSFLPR

mES reporter cell lines = assay: ToxTracker genotoxicity assay; format: cell-based
[9] = system: SAg-stimulated PBMC and endothelial cell coculture system; assay: BioMap Diversity 8 Panel, SAg system; format: cell-based, human; details: up to 500 µM
[10] = system: 8 cell-based human primary cell cultures (or cocultures); details: ref ToxCast, CompTox Chemicals Dashboard; cited from earlier work
HepaRG 3D [11] = assay: In vitro cell stress panel in HepaRG 3D spheroids; format: cell-based, human
MAO-A [12] = biological target: T1, MAO-A; details: ref Gnerre et al., 2000; cited from earlier work

## O=c1ccc2ccccc2o1 [Coumarin]
[1]; PubChem, Carbonic Anhydrase Type I
  Body Lotion Min. 5th percentile MoS: 158
[1]; body lotion
  Preliminary MoS (range): 158-22048
[1]; face cream and body lotion
  MoS (the 5th percentile), all PoDs: higher than 100
[1]; face cream
  Preliminary MoS (range): 706-96738
MCF7; MCF7, 24 h
  PoDT, Mean BMD of genes between 25th and 75th percentile: 1 µM
MCF7; MCF7, up to the maximum tested concentration, data not shown
  cytotoxicity (> 20%): No significant cytotoxicity
MAO-B
  IC50: 40.7 µM
[2]
  biomarkers affected: No biomarkers were affected
[3]
  half-life: 13 min
[4]
  Ki: 62.3 µM
[5]
  Ki: 3 µM
MAO-A [6]
  Mean % inhibition, Specific binding: 22%
[7]
  tolerable daily intake (TDI) for coumarin in foods: 0 to 0.1 mg/kg/day
HepaRG 3D [8]
  summarized PoDs after 24 h exposure (range): 41 to 55 µM
HepaRG 3D [8]; 24 h
  PoDT, BMD of Reactome pathway with lowest BMD that meets significance threshold criteria: 41 µM
  number of genes in gene-level tests: (9 genes)
HepaRG 3D [8]; 24 h, fewer than 20 genes (*)
  PoDT, Mean BMD of genes between 25th and 75th percentile: 46* µM
HepaRG 3D [8]; 24 h, fewer than 20 pathways (*)
  PoDT, 20 pathways with the lowest BMD Reactome: 46* µM
HepaRG 3D [8]; 24 h, listed as coumarin
  number of genes in gene-level tests: 9 genes
  number of pathways in pathway-level tests: 2 pathways
HepaRG 2D; 2D HepaRG, up to the maximum tested concentration, data not shown
  cytotoxicity (> 20%): No significant cytotoxicity
HepaRG 2D; HepaRG 2D, 24 h
  PoDT, Mean BMD of genes between 25th and 75th percentile: 59 µM
  number of pathways in pathway-level tests: 17 pathways
CYP2A6
  half-life at 1 µM: < 5 min
HepG2; HepG2, 24 h
  PoDT, 20 pathways with the lowest BMD Reactome: 44 µM
  PoDT, BMD of Reactome pathway with lowest BMD that meets significance threshold criteria: 31 µM
  PoDT, Mean BMD of genes between 25th and 75th percentile: 17 µM
  number of genes in gene-level tests: (1570 genes)
  number of pathways in pathway-level tests: (308 pathways)
HepG2; HepG2, up to the maximum tested concentration, data not shown
  cytotoxicity (> 20%): No significant cytotoxicity
mES reporter cell lines; presence of S9, 24 h
  Blvrb-GFP oxidative stress marker: activated
  Btg2-GFP reporter (p53 response) activation: weak activation
  Srxn1-GFP oxidative stress marker: activated
mES reporter cell lines; up to 1000 µM, absence or presence of S9
  cytotoxicity: No significant cytotoxicity
mES reporter cell lines; without metabolic activation, 24 h
  Srxn1-GFP oxidative stress reporter: induced
[9]
  biomarkers affected: No biomarkers were affected
[10]
  concentration-response in BioMap data generated during the ToxCast program: No concentration-response
HepaRG 3D [11]
  biomarker changes at 24 h: no changes
MAO-A [12]
  IC50: 12 µM
